Patent publication US6369059B1, “Tetracyclic derivatives, process of preparation and use” (ICOS Corporation, priority 1994, dated 2002)

SMILES | melting point
O=C1[C@H]2Cc3c([nH]c4ccccc34)[C@H](c3ccc(Br)s3)N2C(=O)CN1CC1CC1 (relative stereo) [Example 54, Cis-2,3,6,7,12,12a-Hexahydro-6-(5-bromo-2-thienyl)-2-cyclopropylmethyl-pyrazino[2′,1′:6,1]pyrido[3,4-b]indole-1,4-dione] | 190 °C
O=C1[C@H]2Cc3c([nH]c4ccccc34)[C@H](c3ccc(Br)s3)N2C(=O)CN1C1CCCC1 (relative stereo) [Example 55, Cis-2,3,6,7,12,12a-Hexahydro-6-(5-bromo-2-thienyl)-2-cyclopentyl-pyrazino[2′,1′:6,1]pyrido[3,4-b]indole-1,4-dione] | 252 °C
Cc1ccc([C@H]2c3[nH]c4ccccc4c3C[C@@H]3C(=O)N(CC4CC4)CC(=O)N23)cc1 (relative stereo) [Example 64, Cis-2,3,6,7,12,12a-Hexahydro-2-cyclopropylmethyl-6-(4-methylphenyl)-pyrazino[2′,1′:6,1]pyrido[3,4-b]indole-1,4-dione] | 194 °C
CCCCN1CC(=O)N2[C@@H](c3ccc(C(F)(F)F)cc3)c3[nH]c4ccccc4c3C[C@@H]2C1=O (relative stereo) [Example 66, Cis-2,3,6,7,12,12a-Hexahydro-2-butyl-6-(4-trifluoromethylphenyl)-pyrazino[2′,1′:6,1]pyrido[3,4-b]indole-1,4-dione] | 155 °C
CCCCN1CC(=O)N2[C@@H](c3ccc(C#N)cc3)c3[nH]c4ccccc4c3C[C@@H]2C1=O (relative stereo) [Example 71, Cis-2,3,6,7,12,12a-Hexahydro-2-butyl-6-(4cyanophenyl)-pyrazino[2′,1′:6,1]pyrido[3,4-b]indole-1,4-dione] | 246 °C
CCc1ccc([C@H]2c3[nH]c4ccccc4c3C[C@@H]3C(=O)N(C(C)C)CC(=O)N23)cc1 (relative stereo) [Example 72, Cis-2,3,6,7,12,12a-Hexahydro-6-(4-ethylphenyl)-2-isopropyl-pyrazino[2′,1′:6,1]pyrido[3,4-b]indole-1,4-dione] | 130 °C
CCc1ccc([C@H]2c3[nH]c4ccccc4c3C[C@@H]3C(=O)N(CC4CC4)CC(=O)N23)cc1 (relative stereo) [Example 73, Cis-2,3,6,7,12,12a-Hexahydro-6-(4-ethylphenyl)-2-cyclopropylmethyl-pyrazino[2′,1′:6,1]pyrido[3,4-b]indole-1,4-dione] | 160 °C
CCCCN1CC(=O)N2[C@@H](c3ccc([N+](=O)[O-])cc3)c3[nH]c4ccccc4c3C[C@@H]2C1=O (relative stereo) [Example 75, Cis-2,3,6,7,12,12a-Hexahydro-2-butyl-6-(4-nitrophenyl)-pyrazino[2′,1′:6,1]pyrido[3,4-b]indole-1,4-dione] | 182 °C
Cc1ccc2[nH]c3c(c2c1)C[C@@H]1C(=O)N(C)CC(=O)N1[C@H]3c1ccc2c(c1)OCO2 (relative stereo) [Example 96, Cis-2,3,6,7,12,12a-Hexahydro-2,10-dimethyl-6-(3,4-methylenedioxyphenyl)-pyrazino[2′,1′:6,1]pyrido[3,4-b]indole-1,4-dione] | 275 °C
CCCCN1CC(=O)N2[C@@H](c3ccc(NC(C)=O)cc3)c3[nH]c4ccccc4c3C[C@@H]2C1=O (relative stereo) [Example 99, Cis-2,3,6,7,12,12a-Hexahydro-6-(4-acetamidophenyl)-2-butyl-pyrazino[2′,1′:6,1]pyrido[3,4-b]indole-1,4-dione] | 246 °C
CCCCN1CC(=O)N2[C@H](c3ccc4c(c3)OCO4)c3[nH]c4ccccc4c3C[C@@H]2C1=O [Example 80, (6R,12aR)-2,3,6,7,12,12a-Hexahydro-2-butyl-6(3,4-methylenedioxyphenyl)-pyrazino[2′,1′:6,1]pyrido[3,4-b]indole-1,4-dione] | 209 to 210 °C
CC(C)CN1CC(=O)N2[C@H](c3ccc4c(c3)OCO4)c3[nH]c4ccccc4c3C[C@@H]2C1=O [Example 81, (6R,12aR)-2,3,6,7,12,12a-Hexahydro-2-isobutyl-6-(3,4-methylenedioxyphenyl)-pyrazino[2′,1′:6,1]pyrido[3,4-b]indole-1,4-dione] | 227 to 228 °C
O=C1[C@H]2Cc3c([nH]c4ccccc34)[C@@H](c3ccc4c(c3)OCO4)N2C(=O)CN1CC1CCCCC1 [Example 83, (6R,12aR)-2,3,6,7,12,12a-Hexahydro-6-(3,4-methylenedioxyphenyl)-2-cyclohexylmethyl-pyrazino[2′,1′:6,1]pyrido[3,4-b]indole-1,4-dione] | 209 °C
COc1ccc([C@@H]2c3[nH]c4ccccc4c3C[C@@H]3C(=O)N(CC4CC4)CC(=O)N23)cc1Cl [Example 87, (6R,12aR)-2,3,6,7,12,12a-Hexahydro-6-(3-chloro-4-methoxyphenyl)-2-cyclopropylmethyl-pyrazino[2′,1′:6,1]pyrido[3,4-b]indole-1,4-dione] | 218 to 219 °C
COc1ccc([C@@H]2c3[nH]c4ccccc4c3C[C@@H]3C(=O)N(C4CCCC4)CC(=O)N23)cc1Cl [Example 88, (6R,12aR)-2,3,6,7,12,12a-Hexahydro-2-cyclopentyl6-(3-chloro-4-methoxyphenyl)-pyrazino[2′,1′:6,1]pyrido[3,4-b]indole-1,4-dione] | 260 to 262 °C
COc1ccc(CN2CC(=O)N3[C@H](c4ccc5c(c4)OCO5)c4[nH]c5ccccc5c4C[C@@H]3C2=O)cc1OC [Example 97, (6R,12aR)-2,3,6,7,12,12a-Hexahydro-2-(3,4-dimethoxybenzyl)-6-(3,4-methylenedioxyphenyl)-pyrazino[2′,1′:6,1]pyrido[3,4-b]indole-1,4-dione] | 224 to 226 °C
C#CCN1CC(=O)N2[C@H](c3ccc4c(c3)OCO4)c3[nH]c4ccccc4c3C[C@@H]2C1=O [Example 102, (6R,12aR)-2,3,6,7,12,12a-Hexahydro-6-(3,4-methylenedioxyphenyl)-2-(2-propynyl)-pyrazino[2′,1′:6,1]pyrido[3,4-b]indole-1,4-dione] | 271 °C

More lines, now with the values ahead:

melting point | SMILES
290 to 295 °C | CN1CC(=O)N2[C@@H](c3ccsc3)c3[nH]c4ccccc4c3C[C@@H]2C1=O (relative stereo) [Example 57, Cis-2,3,6,7,12,12a-Hexahydro-2-methyl-6-(3-thienyl)-pyrazino[2′,1′:6,1]pyrido[3,4-b]indole-1,4-dione]
> 260 °C | Cc1ccc([C@H]2c3[nH]c4ccccc4c3C[C@@H]3C(=O)N(C)CC(=O)N23)cc1 (relative stereo) [Example 61, Cis-2,3,6,7,12,12a-Hexahydro-2-methyl-6-(4-methylphenyl)-pyrazino[2′,1′:6,1]pyrido[3,4-b]indole-1,4-dione]
170 °C | Cc1ccc([C@H]2c3[nH]c4ccccc4c3C[C@@H]3C(=O)N(C(C)C)CC(=O)N23)cc1 (relative stereo) [Example 62, Cis-2,3,6,7,12,12a-Hexahydro-2-isopropyl-6-(4-methylphenyl)-pyrazino[2′,1′:6,1]pyrido[3,4-b]indole-1,4-dione]
> 260 °C | Cc1cccc([C@H]2c3[nH]c4ccccc4c3C[C@@H]3C(=O)N(C)CC(=O)N23)c1 (relative stereo) [Example 65, Cis-2,3,6,7,12,12a-Hexahydro-2-methyl-6-(3-methylphenyl)-pyrazino[2′,1′:6,1]pyrido[3,4-b]indole-1,4-dione]
174 to 180 °C | CN1CC(=O)N2[C@@H](c3ccc(OC(F)(F)F)cc3)c3[nH]c4ccccc4c3C[C@@H]2C1=O (relative stereo) [Example 67, Cis-2,3,6,7,12,12a-Hexahydro-2-methyl-6-(4-trifluoromethoxyphenyl)-pyrazino[2′,1′:6,1]pyrido[3,4-b]indole-1,4-dione]
179 to 180 °C | CN1CC(=O)N2[C@@H](c3ccc(O)cc3)c3[nH]c4ccccc4c3C[C@@H]2C1=O (relative stereo) [Example 68, Cis-2,3,6,7,12,12a-Hexahydro-2-methyl-6-(4-hydroxyphenyl)-pyrazino[2′,1′:6,1]pyrido[3,4-b]indole-1,4-dione]
264 to 265 °C | COc1cc([C@H]2c3[nH]c4ccccc4c3C[C@@H]3C(=O)N(C)CC(=O)N23)ccc1O (relative stereo) [Example 70, Cis-2,3,6,7,12,12a-Hexahydro-6-(4-hydroxy-3-methoxyphenyl)-2-methyl-pyrazino[2′,1′:6,1]pyrido[3,4-b]indole-1,4-dione]
312 °C | CN1CC(=O)N2[C@@H](c3cccnc3)c3[nH]c4ccccc4c3C[C@@H]2C1=O (relative stereo) [Example 77, Cis-2,3,6,7,12,12a-Hexahydro-2-methyl-6-(3-pyridyl)-pyrazino[2′,1′:6,1]pyrido[3,4-b]indole-1,4-dione]
192 °C | CCCCN1CC(=O)N2[C@@H](c3ccc(N)cc3)c3[nH]c4ccccc4c3C[C@@H]2C1=O (relative stereo) [Example 98, Cis-2,3,6,7,12,12a-Hexahydro-6-(4-aminophenyl)-2-butyl-pyrazino[2′,1′:6,1]pyrido[3,4-b]indole-1,4-dione]
254 °C | CCc1ccc([C@H]2c3[nH]c4ccccc4c3C[C@@H]3C(=O)N(C)CC(=O)N23)cc1 (relative stereo) [Example 112, Cis-2,3,6,7,12,12a-Hexahydro-6-(4-ethylphenyl)-2-methyl-pyrazino[2′,1′:6,1]pyrido[3,4-b]indole-1,4-dione]
262 °C | CN1CC(=O)N2[C@H](c3ccc4c(c3)CCC4)c3[nH]c4ccccc4c3C[C@@H]2C1=O [Example 93, (6R,12aR)-2,3,6,7,12,12a-Hexahydro-6-(5-indanyl)-2-methyl-pyrazino[2′,1′:6,1]pyrido[3,4-b]indole-1,4-dione]
285 to 288 °C | COc1ccc([C@@H]2c3[nH]c4ccccc4c3C[C@@H]3C(=O)N(C)CC(=O)N23)cc1 [Example 107, (6R,12aR)-2,3,6,7,12,12a-Hexahydro-6-(4-methoxyphenyl)-2-methyl-pyrazino[2′,1′:6,1]pyrido[3,4-b]indole-1,4-dione]
277 °C | CCN1CC(=O)N2[C@H](c3ccc(OC)cc3)c3[nH]c4ccccc4c3C[C@@H]2C1=O [Example 108, (6R,12aR)-2,3,6,7,12,12a-Hexahydro-2-ethyl-6-(4-methoxyphenyl)-pyrazino[2′,1′:6,1]pyrido[3,4-b]indole-1,4-dione]
